Patent US8946394B2, “Conjugate for photodynamic diagnosis or therapy and method for preparing same” (Panaxem Co., Ltd., priority 2010, dated 2015)

Tested on: HeLa cells
Assay: Cytotoxicity test (MTT) with and without near infrared irradiation
Format: cell-based
Procedure: Cytotoxicity test was conducted on the nano-microsphere according to the present invention prepared from Example 1. HeLa cells as cancer cells were incubated in the RPMI 1640 culture medium containing 10% FBS and 1% penicillin in the presence of 5% CO2 at a temperature of 37° C. Then, for the cytotoxicity test, the incubated HeLa cells were dispensed on a 96-well plate at a cell number of 1×10^4 and then incubated for 24 hours. Next day, the nano-microspheres (nano-microspheres added with 1.25 mg of a photosensitizer) according to the present invention were diluted by concentrations, respectively, and then the diluted concentrations were put into each well at 100 μl.
After that, the cells were further incubated for 12 hours so that the nano-microspheres can act on the cells, and then near infrared wavelength light (670 nm) was irradiated at an amount of 1.2 J/cm^2. […]
Lastly, 20 μl of MTT reagent (3-(4,5-dimethylthiazol-2yl)-2,5-diphenyl-2H-tetrazolium bromide) was added to the cells after incubation was completed, followed by again incubating for 3˜4 hours. […] After that, the ELIZA analyzer was used to measure absorbance at 595 nm and thus comparison of the amount of formazan formed was conducted, to thereby confirm cell viability (%) and cytotoxicity of the conjugate (FIGS. 15 and 16).

CCCC(C)(C)c1cc(Oc2ccc3c(c2)/C2=N/c4c5ccc(Oc6cc(C(C)(C)CCC)c(OC)cc6C(C)(C)CCC)cc5c5[n]4[Zn][n]4/c(c6ccc(Oc7cc(C(C)(C)CCC)c(OC)cc7C(C)(C)CCC)cc6/c4=N/C3=N2)=N\C2=NC(=N\5)/c3ccc(Oc4ccc(C(=O)O)cc4)cc32)c(C(C)(C)CCC)cc1OC [Zn-Pc-COOH]
apoptosis / cell viability (%) (near infrared ray (670 nm, 1.2 J/cm^2) irradiated): apoptosis occurred in proportional to the time for irradiation
apoptosis / cell viability (%) (near infrared ray not irradiated): apoptosis did not occur
